Results reported in patent publication US20160304547A1, “MACROLIDE COMPOUND” (PULIKE BIOLOGICAL ENGINEERING, INC, priority 2013, published 2016).
Converted amounts (≈) assume the structure as drawn.

Key:
[1] = system: Streptococcus pneumoniae CMCC 31203; test: In vivo antibacterial test, survival of infected BALB/c mice; details: BALB/c mice infected i.p. with Streptococcus pneumoniae; for responders at 5 mg/kg: CMCC31203, sc, 168 h, 5 mg per kg s.c. via neck for 3 consecutive days, deaths recorded until the seventh day, read-out: Animal survival rate
[2] = orally intoxicated mice; cited from earlier work
[3] = Acute toxicity test of compound Syzx-24, single gastric perfusion; details: Balb/c mice, 2000 mg/kg once by gastric perfusion, 6 h after administration
[4] = system: Staphylococcus aureus CVCC26003; test: MIC by mini broth dilution technique (in vitro susceptibility); type: cell-based; details: Staphylococcus aureus CVCC26003; broth dilution; read-out: MIC values Staphylococcus aureus CVCC26003
Procedure: (§1) in vitro tests of susceptibility of the compounds according to the present disclosure against bacterial strains commonly used in laboratories. In accordance with the Performance Standards for Antimicrobial Disk Susceptibility Tests: Approved Standard published by the US National Committee for Clinical Laboratory Standards, the antibactetial activities of compounds prepared according to examples 5 to 187 were tested. The MICs (minimum inhibitory concentration) of the medicaments prepared according to the examples on the following bacterial strains were measured through mini broth dilution technique. Staphylococcus aureus CVCC26003, Streptococcus equines CVCC556. Actinobacillus pleuropneumoniae CVCC262, Haemophilus parasuis, and Pasteurella multocida CVCC399, which were purchased from the Control Institute of Veterinary Bioproducts and Pharmaceuticals, China. Liquid culture medium: CAMHB. […] Solid culture medium: NINA prepared according to the specification of the final product. The strains were taken out of a regrigerator at −20° C. to be revived, and were spreaded by streaking on the solid culture medium with an inoculating loop. The inoculated culture medium was cultured at 35° C. in a constant temperature incubator for 20 h. Monoclonal antibodies were selected from a well-grown culture plate and streaked on the solid culture medium. The inoculated culture medium was cultured at 35° C. in the constant temperature incubator for 20 h. […] A 96-well plate was used, and 100 μl of DMSO was added into each of wells 2 to 11, and 200 μl of ready-prepared medicament solution was added into the 1st well, 100 μl of the medicament solution was extracted from the 1st well and added into the 2nd well. Double dilution was performed until the 11th well, thereby forming 11 gradients. In this case, compound of parent plate was prepared. 3 μl of double diluted medicament solution was extracted with a 12-channel pipettor and added into wells 1-11 of a new disposable 96-well culture plate. The 12th well thereof is a controll well. For each medicament, there are two adjacent rows which are parallel. The transferred compound plate was reserved for later use. […] The dilution ratio was recorded, and the bacterial liquid for the tests was diluted according to the recorded dilution ratio. Subsequently, the bacterial suspension and the liquid culture medium were diluted in the proportion of 1:200. The diluted solution was reserved for later use.

[5] = system: Actinobacillus pleuropneumoniae CVCC262; test: as above; type: cell-based; details: Actinobacillus pleuropneumoniae CVCC262; broth dilution; read-out: MIC values Actinobacillus pleuropneumoniae CVCC262
Procedure: as §1, with “medium:” for “medium: CAMHB.”, “NINA prepared according to the specification of the final product.” left out

Haemophilus parasuis = test: as above; type: cell-based; details: Glaesserella parasuis; Haemophilus parasuis; broth dilution; read-out: MIC values Haemophilus parasuis
Procedure: as §1, with “medium:” for “medium: CAMHB.”, “NINA prepared according to the specification of the final product.” left out

[6] = system: Pasteurella multocida CVCC399; test: as above; type: cell-based; details: Pasteurella multocida CVCC399; broth dilution; read-out: MIC values Pasteurella multocida CVCC399
Procedure: as §1, with “medium:” for “medium: CAMHB.”, “NINA prepared according to the specification of the final product.” left out

[7] = system: Streptococcus equines CVCC556; test: as above; type: cell-based; details: Streptococcus equines CVCC556; broth dilution; read-out: MIC values Streptococcus equines CVCC556
Procedure: as §1, with “medium:” for “medium: CAMHB.”, “NINA prepared according to the specification of the final product.” left out

Row | SMILES | Animal survival rate ([1]; Tulathromycin control group, 10 mg per kg of body weight after infection, until the seventh day) | minimum lethal dose [2] | Death rate [3] [%] | Number of dead animals/total number of animals [3] | MIC [4] [µg/mL] | MIC [5] [µg/mL] | MIC (Haemophilus parasuis) [µg/mL] | MIC [6] [µg/mL] | MIC [7] [µg/mL] | responders at 5 mg/kg [1] [%]
1 | CCCNC[C@]1(O)[C@H](C)O[C@@H](O[C@H]2[C@H](C)[C@@H](O[C@@H]3O[C@H](C)C[C@H](N(C)C)[C@H]3O)[C@](C)(O)C[C@@H](C)CN[C@H](C)[C@@H](O)[C@](C)(O)[C@@H](CC)OC(=O)[C@@H]2C)C[C@@]1(C)OC [Tulathromycin, reference compound] | 70% (7/10) | higher than 2000 mg/kg.d-1 | 75 |  |  |  |  |  |  | 
2 | CC[C@H]1OC(=O)[C@H](C)[C@@H](O[C@H]2C[C@@](C)(OC)[C@](O)(CN(C)C)[C@H](C)O2)[C@H](C)[C@@H](O[C@@H]2O[C@H](C)C[C@H](N(C)C)[C@H]2O)[C@](C)(O)C[C@@H](C)NC[C@H](C)[C@@H](O)[C@]1(C)O [syzx-24] |  |  | 0 | 0/4 |  |  |  |  |  | 
3 | CC[C@@H]1OC(=O)[C@H](C)[C@H](OC2C[C@@](C)(OC)[C@](O)(CNCCCOC)[C@H](C)O2)[C@@H](C)[C@@H](O[C@@H]2O[C@H](C)C[C@H](N(C)C)[C@H]2O)[C@](C)(O)C[C@@H](C)NC[C@@H](C)[C@H](O)[C@]1(C)O (some centres unmarked) [syzx-66] |  |  |  |  | 1 (≈ 1.2 µM) | 8 (≈ 9.57 µM) | ≤ 0.25 | ≤ 0.25 | 0.5 (≈ 0.598 µM) | 80
4 | CC[C@@H]1OC(=O)[C@H](C)[C@H](OC2C[C@@](C)(OC)[C@](O)(CNCC3CCCCC3)[C@H](C)O2)[C@@H](C)[C@@H](O[C@@H]2O[C@H](C)C[C@H](N(C)C)[C@H]2O)[C@](C)(O)C[C@@H](C)NC[C@@H](C)[C@H](O)[C@]1(C)O (some centres unmarked) [syzx-67] |  |  |  |  | ≤ 0.25 | 0.5 (≈ 0.581 µM) | ≤ 0.25 | ≤ 0.25 | ≤ 0.25 | 70
5 | CCCN1C[C@@H](C)[C@@H](O)[C@](C)(O)[C@H](CC)OC(=O)[C@H](C)[C@H](OC2C[C@@](C)(OC)[C@](O)(CN(C)CC)[C@H](C)O2)[C@H](C)[C@@H](O[C@@H]2O[C@H](C)C[C@H](N(C)C)[C@H]2O)[C@](C)(O)C[C@H]1C (some centres unmarked) [syzx-213] |  |  |  |  | 0.25 (≈ 0.295 µM) | 0.25 (≈ 0.295 µM) | 0.25 (≈ 0.295 µM) | 0.25 (≈ 0.295 µM) | 0.25 (≈ 0.295 µM) | 90
